T/C data for 18 compounds are collected here from PubChem BioAssay AID192 (DTP/NCI, 2004).

Where “and” joins values, the source holds several entries; their conditions need not be identical. Identical values can stand only once. Toxic doses and inconclusive results are not listed.

The test system of this assay is BDF1 mice, B16 melanoma ip, median survival T/C. As to the kind of experiment: NCI In Vivo Anticancer Drug Screen. Data for tumor model B16 Melanoma (intraperitoneal) in B6D2F1 (BDF1) mice. The conditions noted are these: endpoint: median survival time, higher = longer survival. The method in brief:
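Mice with transplantable tumors; drug vs vehicle groups; endpoint survival or tumor size; value = T/C.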

[1] abbreviates: dose: 100.0 mg/kg/injection, schedule: Q01DX009 (ip), vehicle: saline.
Where [2] appears, read: dose: 200.0 mg/kg/injection, schedule: Q01DX009 (ip), vehicle: saline.
The mark [3] stands for this setting: dose: 6.25 mg/kg/injection, schedule: Q01DX009 (ip), vehicle: saline with Tween-80.
Setting [4] is: dose: 12.5 mg/kg/injection, schedule: Q01DX009 (ip), vehicle: saline with Tween-80.
Setting [5] is: dose: 25.0 mg/kg/injection, schedule: Q01DX009 (ip), vehicle: saline with Tween-80.
Where [6] appears, read: dose: 100.0 mg/kg/injection, schedule: Q01DX009 (ip), vehicle: saline with Tween-80.
Setting [7] is: dose: 200.0 mg/kg/injection, schedule: Q01DX009 (ip), vehicle: saline with Tween-80.

Consider `O=[N+]([O-])/C=C\c1ccc2c(c1)OCO2`, for which the T/C reads like this: (dose: 22.0 mg/kg/injection, schedule: Q01DX009 (ip), vehicle: Klucel (hydroxypropylcellulose) (HPC)) 96 % of control; (dose: 33.0 mg/kg/injection, schedule: Q01DX009 (ip), vehicle: Klucel (hydroxypropylcellulose) (HPC)) 108 % of control; (dose: 50.0 mg/kg/injection, schedule: Q01DX009 (ip), vehicle: Klucel (hydroxypropylcellulose) (HPC)) 96 % of control; (dose: 75.0 mg/kg/injection, schedule: Q01DX009 (ip), vehicle: Klucel (hydroxypropylcellulose) (HPC)) 100 % of control.
Take `O=C([O-])C[n+]1ccccc1`: the T/C by setting is: under setting [1], 108 % of control; under setting [2], 103 % of control.
As for `CC(C)CNc1ccc(S(=O)(=O)c2ccc(NCC(C)C)c([N+](=O)[O-])c2)cc1[N+](=O)[O-]`, the T/C is 100 % of control (dose: 3.13 mg/kg/injection, schedule: Q01DX009 (ip), vehicle: saline with Tween-80); 93 % of control under setting [3]; 93 % of control (dose: 6.25 mg/kg/injection, schedule: Q01DX009 (ip), vehicle: saline); 89 % of control under setting [4]; 88 % of control (dose: 25.0 mg/kg/injection, schedule: Q01DX009 (ip), vehicle: saline).
With `Cc1ccccc1N1C(=O)CSC1=S`, the T/C is 90 % of control (dose: 12.5 mg/kg/injection, schedule: Q01DX009 (ip), vehicle: Klucel (hydroxypropylcellulose) (HPC)) and 93 % of control (dose: 25.0 mg/kg/injection, schedule: Q01DX009 (ip), vehicle: Klucel (hydroxypropylcellulose) (HPC)).
Regarding `CCOC(=O)c1cnc(NN)nc1Nc1cc(Cl)cc(Cl)c1`, the T/C by setting is: under setting [3], 97 % of control; under setting [4], 101 % of control; under setting [5], 91 % of control.
On to `C/C=C/C=C/c1cc2cc3c(c(O)c2c(=O)[nH]1)C1(CC3)C(O)=c2c(=O)c3c(=O)cc(OC)c(=O)c=3c(=O)c2=C1O` (stereo not given), for which the T/C by setting is: (dose: 0.06 mg/kg/injection, schedule: Q01DX009 (ip), vehicle: DMSO) 98 % of control; (dose: 0.12 mg/kg/injection, schedule: Q01DX009 (ip), vehicle: DMSO) 99 % of control; (dose: 0.25 mg/kg/injection, schedule: Q01DX009 (ip), vehicle: DMSO) 96 % of control; (dose: 0.5 mg/kg/injection, schedule: Q01DX009 (ip), vehicle: DMSO) 120 % of control.
On to `CCCCNC=O`, for which the T/C reads like this: under setting [1], 102 % of control; under setting [2], 102 % of control; (dose: 400.0 mg/kg/injection, schedule: Q01DX009 (ip), vehicle: saline) 116 % of control.
As to `C=C1C(=O)OC2C1CCC(=C)C1CC(O)C(=C)C12` (stereo not given), the T/C runs as follows: (dose: 67.0 mg/kg/injection, schedule: Q01DX009 (ip), vehicle: saline with Tween-80) 87 % of control; under setting [6], 87 % of control.
For the compound `COc1cc2c(c(OC)c1OC)-c1ccc(OC)c(=O)cc1[C@@H](NC(=O)c1ccccc1)CC2`, the T/C is, setting by setting: (dose: 1.0 mg/kg/injection, schedule: Q01DX009 (ip), vehicle: Klucel (hydroxypropylcellulose) (HPC)) 173 % of control and 190 % of control; (dose: 2.0 mg/kg/injection, schedule: Q01DX009 (ip), vehicle: Klucel (hydroxypropylcellulose) (HPC)) 156 % of control and 161 % of control.
With `CN(C)N=Nc1ccc(NC(N)=O)cc1`, the T/C is, setting by setting: (dose: 18.75 mg/kg/injection, schedule: Q01DX009 (ip), vehicle: Klucel (hydroxypropylcellulose) (HPC)) 123 % of control; (dose: 37.5 mg/kg/injection, schedule: Q01DX009 (ip), vehicle: Klucel (hydroxypropylcellulose) (HPC)) 86 % of control.
Take `COc1cc2ccc3c[n+]4ccccc4cc3c2cc1OC`: the T/C is 97 % of control (dose: 25.0 mg/kg/injection, schedule: Q04DX009 (ip), vehicle: Klucel (hydroxypropylcellulose) (HPC)); 93 % of control (dose: 50.0 mg/kg/injection, schedule: Q04DX009 (ip), vehicle: Klucel (hydroxypropylcellulose) (HPC)); 89 % of control (dose: 100.0 mg/kg/injection, schedule: Q04DX009 (ip), vehicle: Klucel (hydroxypropylcellulose) (HPC)); 95 % of control (dose: 150.0 mg/kg/injection, schedule: Q04DX009 (ip), vehicle: Klucel (hydroxypropylcellulose) (HPC)).
With `CCCCOC(=O)c1ccc(NC(=O)Nc2ccccc2)cc1`, the T/C is 93 % of control under setting [5]; 98 % of control (dose: 50.0 mg/kg/injection, schedule: Q01DX009 (ip), vehicle: saline with Tween-80); 93 % of control under setting [6].
With `COc1ccc(Br)cc1/C=N\NS(=O)(=O)c1ccc(C)cc1`, the T/C is 94 % of control (dose: 100.0 mg/kg/injection, schedule: Q01DX009 (ip), vehicle: Klucel (hydroxypropylcellulose) (HPC)); 90 % of control under setting [6]; 110 % of control (dose: 200.0 mg/kg/injection, schedule: Q01DX009 (ip), vehicle: Klucel (hydroxypropylcellulose) (HPC)); 95 % of control under setting [7]; 100 % of control (dose: 400.0 mg/kg/injection, schedule: Q01DX009 (ip), vehicle: Klucel (hydroxypropylcellulose) (HPC)).
In the case of `CN1CCC23c4c5ccc(O)c4OC2C(O)C=CC3C1C5` (stereo not given), the T/C runs as follows: (dose: 32.0 mg/kg/injection, schedule: Q01DX009 (ip), vehicle: saline) 114 % of control; (dose: 64.0 mg/kg/injection, schedule: Q01DX009 (ip), vehicle: saline) 111 % of control; (dose: 128.0 mg/kg/injection, schedule: Q01DX009 (ip), vehicle: saline) 100 % of control; (dose: 256.0 mg/kg/injection, schedule: Q01DX009 (ip), vehicle: saline) 94 % of control.
Turning to `CCC1(O)CC(OC2CC(N(C)C)C(OC3CC4OC5CC(=O)C(C)OC5OC4C(C)O3)C(C)O2)c2c(cc3c(c2O)C(=O)c2c(O)ccc(O)c2C3=O)C1C(=O)OC` (stereo not given), the T/C is 88 % of control (dose: 0.75 mg/kg/injection, schedule: Q01DX009 (ip), vehicle: saline); 97 % of control (dose: 0.75 mg/kg/injection, schedule: Q04DX003 (ip), vehicle: saline); 105 % of control (dose: 1.5 mg/kg/injection, schedule: Q01DX009 (ip), vehicle: saline); 88 % of control (dose: 1.5 mg/kg/injection, schedule: Q04DX003 (ip), vehicle: saline); 97 % of control (dose: 3.0 mg/kg/injection, schedule: Q04DX003 (ip), vehicle: saline).
Turning to `CCc1cc(C)cc(OC(=O)Nc2ccc(Cl)cc2)c1`, the T/C under setting [6] was 116 % of control; the T/C under setting [7] was 87 % of control; the T/C (dose: 400.0 mg/kg/injection, schedule: Q01DX009 (ip), vehicle: saline with Tween-80) was 92 % of control.
In the case of `CN(C)CC/C=C1\c2ccccc2Sc2ccc(Cl)cc21`, the T/C is 95 % of control (dose: 0.12 mg/kg/injection, schedule: Q01DX009 (ip), vehicle: Klucel (hydroxypropylcellulose) (HPC)); 86 % of control (dose: 0.24 mg/kg/injection, schedule: Q01DX009 (ip), vehicle: Klucel (hydroxypropylcellulose) (HPC)); 88 % of control (dose: 0.48 mg/kg/injection, schedule: Q01DX009 (ip), vehicle: Klucel (hydroxypropylcellulose) (HPC)); 86 % of control (dose: 1.95 mg/kg/injection, schedule: Q01DX009 (ip), vehicle: Klucel (hydroxypropylcellulose) (HPC)); 105 % of control (dose: 7.0 micrograms/kg/injection, schedule: Q01DX009 (ip), vehicle: Klucel (hydroxypropylcellulose) (HPC)); 107 % of control (dose: 15.0 micrograms/kg/injection, schedule: Q01DX009 (ip), vehicle: Klucel (hydroxypropylcellulose) (HPC)). Also, the T/C is 105 % of control (dose: 30.0 micrograms/kg/injection, schedule: Q01DX009 (ip), vehicle: Klucel (hydroxypropylcellulose) (HPC)); 105 % of control (dose: 60.0 micrograms/kg/injection, schedule: Q01DX009 (ip), vehicle: Klucel (hydroxypropylcellulose) (HPC)); 98 % of control (dose: 120.0 micrograms/kg/injection, schedule: Q01DX009 (ip), vehicle: Klucel (hydroxypropylcellulose) (HPC)).
As to `CCOC(=O)C1(C)OCCO1`, the T/C was 95 % of control (dose: 100.0 mg/kg/injection, schedule: Q04DX003 (ip), vehicle: saline); 104 % of control (dose: 200.0 mg/kg/injection, schedule: Q04DX003 (ip), vehicle: saline); 104 % of control (dose: 400.0 mg/kg/injection, schedule: Q04DX003 (ip), vehicle: saline).
